For one data set, the target named is Dipeptidyl peptidase 2 (Homo sapiens, UniProt Q9UHL4). As to the kind of experiment: Inhibition of QPP.
The next data set addresses Dipeptidyl peptidase 8 (Homo sapiens, UniProt Q6V1X1). As to the kind of experiment: Inhibition of DPP8.
The target in another data set is Dipeptidyl peptidase 9 (Homo sapiens, UniProt Q86TI2). As to the kind of experiment: Inhibition of DPP9.
The target of the next data set is Dipeptidyl peptidase 4 (Homo sapiens, UniProt P27487).
Data set [1] is described as follows: Plasma clearance in rat. The class given is ADME, organism-based.
Data set [2] is described as follows: (§1) Half life in rat. The class given is ADME, organism-based. Particulars: in vivo.
Data set [3] can be described thus: Oral bioavailability in rat. The class given is ADME, organism-based. Particulars: in vivo.
Data set [4] in a line: Plasma clearance in dog. The class given is ADME, organism-based, Canis lupus familiaris.
Data set [5] in a line: Plasma clearance in rhesus monkey. The class given is ADME, organism-based, Macaca mulatta.
The nature of data set [6]: Half life in dog. The class given is ADME, organism-based, Canis lupus familiaris. The settings on record: in vivo.
Data set [7] is described as follows: Half life in rhesus monkey. The class given is ADME, organism-based, Macaca mulatta. The settings on record: in vivo.
Data set [8] in a line: Oral bioavailability in dog. The class given is ADME, organism-based, Canis lupus familiaris. The settings on record: in vivo.
A short description of data set [9]: Oral bioavailability in rhesus monkey. The class given is ADME, organism-based, Macaca mulatta. The settings on record: in vivo.
Data set [10] concerns Mus musculus. Kind of data set: Reduction of blood glucose excursion in lean mouse at 0.1 mg/kg by oral glucose tolerance test. The class given is functional. On the set-up: scale not given: the % may be the effect or the level left.
Data set [11] concerns Mus musculus. Kind of data set: Reduction of blood glucose excursion in lean mouse at 3.0 mg/kg by oral glucose tolerance test. The class given is functional. Further details: scale not given: the % may be the effect or the level left.
In data set [12] the test system is Mus musculus. As to the kind of experiment: Reduction of blood glucose excursion in lean mouse at 1.0 mg/kg by oral glucose tolerance test. The class given is functional. Further details: scale not given: the % may be the effect or the level left.
A further data set is filed under the species Rattus norvegicus. The description is as §1. The class given is ADME, organism-based. Particulars: in vivo.

Dipeptidyl peptidase 9, sequence (Q86TI2 whole entry): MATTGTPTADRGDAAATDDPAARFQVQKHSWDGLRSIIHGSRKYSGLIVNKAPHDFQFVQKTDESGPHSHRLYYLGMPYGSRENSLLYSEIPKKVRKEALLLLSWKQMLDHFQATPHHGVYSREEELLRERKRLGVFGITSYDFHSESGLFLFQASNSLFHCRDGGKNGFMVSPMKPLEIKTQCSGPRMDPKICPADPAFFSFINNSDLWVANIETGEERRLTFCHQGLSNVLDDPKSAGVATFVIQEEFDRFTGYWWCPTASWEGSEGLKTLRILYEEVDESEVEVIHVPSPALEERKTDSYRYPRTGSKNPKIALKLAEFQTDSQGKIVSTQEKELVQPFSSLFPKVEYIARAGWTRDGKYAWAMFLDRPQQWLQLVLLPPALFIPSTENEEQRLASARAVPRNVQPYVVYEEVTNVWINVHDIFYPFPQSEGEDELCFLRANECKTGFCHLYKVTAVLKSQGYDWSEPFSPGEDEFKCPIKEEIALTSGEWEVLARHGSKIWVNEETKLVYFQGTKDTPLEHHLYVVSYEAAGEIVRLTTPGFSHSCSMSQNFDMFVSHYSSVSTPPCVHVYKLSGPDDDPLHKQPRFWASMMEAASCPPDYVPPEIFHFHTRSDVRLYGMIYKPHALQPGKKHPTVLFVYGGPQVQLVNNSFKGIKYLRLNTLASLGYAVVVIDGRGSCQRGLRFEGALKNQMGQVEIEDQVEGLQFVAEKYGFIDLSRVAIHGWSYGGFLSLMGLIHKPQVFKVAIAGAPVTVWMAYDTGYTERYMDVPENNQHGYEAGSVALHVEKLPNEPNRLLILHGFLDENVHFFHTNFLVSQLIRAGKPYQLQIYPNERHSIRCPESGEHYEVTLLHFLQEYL
Dipeptidyl peptidase 8, sequence (Q6V1X1 whole entry): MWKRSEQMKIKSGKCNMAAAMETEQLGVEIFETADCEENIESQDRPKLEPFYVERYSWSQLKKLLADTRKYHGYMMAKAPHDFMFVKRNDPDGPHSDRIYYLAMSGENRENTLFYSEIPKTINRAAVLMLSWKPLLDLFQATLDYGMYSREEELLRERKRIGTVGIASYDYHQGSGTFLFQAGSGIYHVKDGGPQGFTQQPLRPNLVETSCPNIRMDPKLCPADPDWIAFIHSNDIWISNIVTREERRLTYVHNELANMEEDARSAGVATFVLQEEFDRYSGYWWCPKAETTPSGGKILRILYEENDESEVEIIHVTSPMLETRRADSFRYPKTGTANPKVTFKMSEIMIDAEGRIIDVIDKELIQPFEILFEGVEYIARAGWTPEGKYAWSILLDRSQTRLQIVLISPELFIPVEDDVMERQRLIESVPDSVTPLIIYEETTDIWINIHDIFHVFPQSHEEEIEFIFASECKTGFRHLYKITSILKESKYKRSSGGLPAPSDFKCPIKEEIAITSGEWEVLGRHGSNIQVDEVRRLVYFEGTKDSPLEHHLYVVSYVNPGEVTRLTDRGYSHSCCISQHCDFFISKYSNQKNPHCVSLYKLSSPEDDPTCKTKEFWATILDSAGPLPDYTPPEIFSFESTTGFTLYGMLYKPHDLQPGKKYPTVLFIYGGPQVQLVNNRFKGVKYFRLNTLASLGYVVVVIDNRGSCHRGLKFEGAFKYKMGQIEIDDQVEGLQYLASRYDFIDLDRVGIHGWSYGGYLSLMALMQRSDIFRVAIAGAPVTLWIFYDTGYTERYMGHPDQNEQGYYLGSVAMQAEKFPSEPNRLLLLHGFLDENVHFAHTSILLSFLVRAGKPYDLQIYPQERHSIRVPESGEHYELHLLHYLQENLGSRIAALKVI
Dipeptidyl peptidase 4, sequence (P27487 whole entry): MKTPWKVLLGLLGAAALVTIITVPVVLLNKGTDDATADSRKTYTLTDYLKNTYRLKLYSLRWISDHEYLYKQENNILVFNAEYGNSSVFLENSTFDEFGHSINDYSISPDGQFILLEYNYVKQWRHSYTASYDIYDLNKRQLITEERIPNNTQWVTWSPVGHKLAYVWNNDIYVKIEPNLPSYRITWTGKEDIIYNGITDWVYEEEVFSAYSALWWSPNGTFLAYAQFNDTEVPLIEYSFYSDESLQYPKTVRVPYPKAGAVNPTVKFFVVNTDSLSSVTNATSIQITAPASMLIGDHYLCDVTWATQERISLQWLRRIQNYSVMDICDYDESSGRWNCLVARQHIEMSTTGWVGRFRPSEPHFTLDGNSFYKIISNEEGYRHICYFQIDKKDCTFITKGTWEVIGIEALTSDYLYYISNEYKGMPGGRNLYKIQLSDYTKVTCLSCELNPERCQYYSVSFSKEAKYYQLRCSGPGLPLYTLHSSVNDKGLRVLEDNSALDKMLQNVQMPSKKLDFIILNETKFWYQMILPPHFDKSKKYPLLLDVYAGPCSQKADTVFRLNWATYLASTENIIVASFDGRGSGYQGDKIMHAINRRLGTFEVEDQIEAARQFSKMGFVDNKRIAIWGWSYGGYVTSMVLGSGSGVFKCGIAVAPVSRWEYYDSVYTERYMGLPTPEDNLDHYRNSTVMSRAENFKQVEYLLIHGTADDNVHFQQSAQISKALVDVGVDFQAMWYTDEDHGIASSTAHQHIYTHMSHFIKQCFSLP

The IC50 is the concentration needed to halve the response being measured. `N[C@@H](CC(=O)N1CCn2ncnc2C1)Cc1cc(F)c(F)cc1F`: the concentration for half-maximal inhibition (IC50) is greater than 100 µM at Dipeptidyl peptidase 2, greater than 100 µM against Dipeptidyl peptidase 8, greater than 100 µM against Dipeptidyl peptidase 9 and 0.1 µM against Dipeptidyl peptidase 4.
For the compound `N[C@@H](CC(=O)N1CCn2nc(C3CC3)nc2C1)Cc1cc(F)c(F)cc1F`, the half-maximal inhibitory concentration (IC50) against Dipeptidyl peptidase 2, on Dipeptidyl peptidase 8 and against Dipeptidyl peptidase 9 was greater than 100 µM in each case.
Broadly, the clearance is a measure of how efficiently the substance is removed, as volume per time. The half-life is the time needed for the level to fall by half in the phase considered. The term bioavailability denotes the share of a dose that reaches the circulation, judged against a reference dose that is usually intravenous. Consider `N[C@@H](CC(=O)N1CCn2nc(C(F)(F)F)nc2C1Cn1ccnc1)Cc1cc(F)c(F)cc1F` (some centres not stated), for which the IC50 on Dipeptidyl peptidase 2 was 26 µM; on Dipeptidyl peptidase 8, greater than 100 µM. The compound further came in with a clearance in data set [1] of 97 mL/min/kg. For the same compound, the half-life in data set [2] was 9 h. Further, the bioavailability in [3] was 7.1%.
Turning to `N[C@@H](CC(=O)N1CCn2nc(C(F)(F)F)nc2C1Cn1cccn1)Cc1cc(F)c(F)cc1F` (some centres not stated), the IC50 on Dipeptidyl peptidase 2 was 9.6 µM; at Dipeptidyl peptidase 8 it was greater than 100 µM; against Dipeptidyl peptidase 9, greater than 100 µM. This compound also came in with a clearance in data set [1] of 142 mL/min/kg. The compound also gave a half-life in data set [2] of 2.3 h. The compound also showed a bioavailability in data set [3] of 62%.
As for `N[C@@H](CC(=O)N1CCn2nc(C(F)(F)F)nc2C1Cn1cncn1)Cc1cc(F)c(F)cc1F` (some centres not stated), the IC50 against Dipeptidyl peptidase 2 is 49 µM; on Dipeptidyl peptidase 8, greater than 100 µM; against Dipeptidyl peptidase 9 it was greater than 100 µM; against Dipeptidyl peptidase 4, 0.005 µM. The same compound gave a clearance in [1] of 129 mL/min/kg. The same compound showed a half-life in data set [2] of 2.8 h. This compound also came in with a bioavailability in [3] of 13%.
As for `C[C@@H]1c2nc(C(F)(F)F)nn2CCN1C(=O)C[C@H](N)Cc1cc(F)c(F)cc1F`, the IC50 at Dipeptidyl peptidase 2 was 25 µM; against Dipeptidyl peptidase 8 it was greater than 100 µM; against Dipeptidyl peptidase 9 it was greater than 100 µM. For the same compound, the clearance in data set [1] came to 68 mL/min/kg; in [4], 1 mL/min/kg; in [5], 16 mL/min/kg. Moreover, the half-life in data set [2] was 4 h; in data set [6] it was 26 h; in data set [7] it was 7.7 h. In addition, the figures for the bioavailability in data set [3], in data set [8] and in data set [9] were 74%, 67% and 65%, respectively. Moreover, the figures for the Activity in the data set with Mus musculus [10], with Mus musculus [11] and in the data set on Mus musculus [12] were 14%, 44% and 39%, respectively.
`C[C@H]1c2nc(C(F)(F)F)nn2CCN1C(=O)C[C@H](N)Cc1cc(F)c(F)cc1F`: the values for the IC50 against Dipeptidyl peptidase 2, against Dipeptidyl peptidase 8 and at Dipeptidyl peptidase 9 were 72 µM, greater than 100 µM and greater than 100 µM, respectively.
`N[C@@H](CC(=O)N1CCn2nc(C(F)(F)F)nc2C1)Cc1cc(F)c(F)cc1F` yielded an IC50 on Dipeptidyl peptidase 9 greater than 100 µM. The compound further yielded a clearance in [1] of 60 mL/min/kg. Further, the half-life in data set [2] was 3.6 h. Moreover, the bioavailability in data set [3] is 100%.
Consider `N[C@@H](CC(=O)N1CCn2nc(C(F)(F)F)nc2[C@H]1Cn1cncn1)Cc1cc(F)c(F)cc1F`, for which the IC50 on Dipeptidyl peptidase 2 was 22 µM; against Dipeptidyl peptidase 8 it was greater than 100 µM; at Dipeptidyl peptidase 9, greater than 100 µM; against Dipeptidyl peptidase 4, 0.002 µM.
`N[C@@H](CC(=O)N1CCn2nc(C(F)(F)F)nc2[C@@H]1C(O)C1CC1)Cc1cc(F)c(F)cc1F` (some centres not stated) [listing 1 of 2 here] yielded an IC50 at Dipeptidyl peptidase 9 greater than 100 µM. This compound had a clearance in [1] of 91 mL/min/kg. Moreover, the half-life in data set [2] was 5.1 h. The bioavailability in data set [3] was determined as 51%.
`N[C@@H](CC(=O)N1CCn2nc(-c3ccccc3)nc2C1)Cc1cc(F)c(F)cc1F` came in with an IC50 against Dipeptidyl peptidase 9 greater than 100 µM.
Take `N[C@@H](CC(=O)N1CCn2nc(C(F)(F)F)nc2[C@H]1Cc1ccc(F)cc1)Cc1cc(F)c(F)cc1F`: the clearance in data set [1] was determined as 76 mL/min/kg. The compound also had a half-life in [2] of 2.7 h. This compound also showed a bioavailability in data set [3] of 32%.
In the case of `N[C@@H](CC(=O)N1CCn2nc(C(F)(F)F)nc2[C@@H]1C(O)C1CC1)Cc1cc(F)c(F)cc1F` (some centres not stated) [listing 2 of 2 here], the half-inhibitory concentration (IC50) against Dipeptidyl peptidase 9 is greater than 100 µM. In [1], this compound returned a clearance of 97 mL/min/kg. The compound also had a half-life in [2] of 3.9 h. For the same compound, the bioavailability in data set [3] was 63%.
As to `N[C@@H](CC(=O)N1CCn2nc(C(F)(F)F)nc2[C@@H]1C(F)C1CC1)Cc1cc(F)c(F)cc1F` (stereo in doubt; 34c), the IC50 is 5.77 µM at Dipeptidyl peptidase 2, greater than 100 µM at Dipeptidyl peptidase 8 and 0.018 µM at Dipeptidyl peptidase 4.
The corresponding values for `N[C@@H](CC(=O)N1CCn2nc(C(F)(F)F)nc2[C@@H]1C(F)C1CC1)Cc1cc(F)c(F)cc1F` (stereo in doubt; 34d) are 4.1 µM, greater than 100 µM and 0.011 µM.
`N[C@@H](CC(=O)N1CCn2c(nnc2C(F)(F)F)C1)Cc1cc(F)c(F)cc1F` [SITAGLIPTIN]: the clearance is 60 mL/min/kg in data set [1], 6 mL/min/kg in data set [4] and 28 mL/min/kg in [5]. In the data set filed under Rattus norvegicus, this compound gave a t1/2 of 1.7 h. Besides, the results for the half-life in [6] and in [7] were 4.9 h and 3.7 h, respectively. Besides, the bioavailability came out at 100% in data set [8] and 68% in data set [9].

The record behind these values is ChEMBL document CHEMBL1140460, “Design, synthesis, and biological evaluation of triazolopiperazine-based beta-amino amides as potent, orally active dipeptidyl peptidase IV (DPP-4) inhibitors” (Bioorg Med Chem Lett, 2007).
